Molecular target: T1, FSHR (Homo sapiens, UniProt P23945)
T1 construct: expressed in transfected cells; host or cells: CHO (Cho-FSHR-LUC-1-1-43)
Assay: EC50 of cyclic AMP production in CHO FSHR cells + EC20 FSH (Assay A)
Assay type: cell-based
Conditions: Table 2; for EC50: CHO FSHR cells + EC20 FSH, read-out: Assay A EC50 of cyclic AMP production
Summary of the method: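 cAMP HTRF ratio (665/620 nm) read after 1 h, 37 °C exposure of CHO-FSHR cells to compound in presence of EC20 FSH ([…]) and IBMX 200 μM. Responses given relative to FSH standard maximum; EC50 derived.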

T1 sequence (P23945 18-695): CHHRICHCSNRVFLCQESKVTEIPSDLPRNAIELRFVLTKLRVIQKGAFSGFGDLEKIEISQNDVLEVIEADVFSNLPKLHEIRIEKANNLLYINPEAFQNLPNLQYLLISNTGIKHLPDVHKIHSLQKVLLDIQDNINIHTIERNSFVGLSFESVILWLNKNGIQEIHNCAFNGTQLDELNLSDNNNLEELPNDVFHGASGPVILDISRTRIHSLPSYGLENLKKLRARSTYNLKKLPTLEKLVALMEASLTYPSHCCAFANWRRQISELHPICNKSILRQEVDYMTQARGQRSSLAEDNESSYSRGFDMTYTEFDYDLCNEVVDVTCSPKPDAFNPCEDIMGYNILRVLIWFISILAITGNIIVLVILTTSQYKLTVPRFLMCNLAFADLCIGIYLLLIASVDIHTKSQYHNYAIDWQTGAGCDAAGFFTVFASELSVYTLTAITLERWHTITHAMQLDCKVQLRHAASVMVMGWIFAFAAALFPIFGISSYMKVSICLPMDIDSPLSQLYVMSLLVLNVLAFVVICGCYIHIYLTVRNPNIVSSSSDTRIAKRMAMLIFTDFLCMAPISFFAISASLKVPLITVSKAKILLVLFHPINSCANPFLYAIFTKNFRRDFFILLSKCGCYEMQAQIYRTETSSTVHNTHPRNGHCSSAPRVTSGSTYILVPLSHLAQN
T1 sequence (P01215 25-116 partner): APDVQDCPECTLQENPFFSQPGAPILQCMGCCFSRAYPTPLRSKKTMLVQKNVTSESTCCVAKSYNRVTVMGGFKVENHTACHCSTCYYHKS
T1 sequence (P01225 19-129 partner): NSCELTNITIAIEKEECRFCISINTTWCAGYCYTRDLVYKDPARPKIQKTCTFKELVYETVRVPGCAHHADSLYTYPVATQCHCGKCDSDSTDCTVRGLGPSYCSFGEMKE

SMILES	EC50	activation at 5 µM (1 h, 5 μM, effect relative to maximum response of the FSH standard)
Cc1ccccc1C1(O)CCN(c2ccc(C(=O)NCCCN3CCCC3=O)cc2NC(=O)c2coc(C3CC3)n2)CC1 [Compound 539]	1000 to 10000 nM	
Cc1ccccc1N1CCN(c2ccc(C(=O)NCCCN3CCCC3=O)cc2NC(=O)C2CC2(F)F)CC1 (stereo not shown) [Compound 540]	1000 to 10000 nM	
Cc1ccccc1N1CCN(c2ccc(C(=O)NOC[C@H](O)CO)cc2NC(=O)c2coc(C3CC3)n2)CC1 [Compound 542]	100 to 1000 nM	
CCN(CC)Cc1cccc(CNC(=O)c2ccc(N3CCN(c4ccccc4C)CC3)c(NC(=O)c3ccc(C)o3)c2)c1 [Compound 543]	1000 to 10000 nM	
Cc1ccc(C(=O)Nc2cc(C(=O)NCc3cccc(CN(C)C)c3)ccc2N2CCN(c3ccccc3C)CC2)o1 [Compound 544]	1000 to 10000 nM	
Cc1ccc(C(=O)Nc2cc(C(=O)NC(C)(C)c3cccc(CN(C)C)c3)ccc2N2CCN(c3ccccc3C)CC2)o1 [Compound 545]	1000 to 10000 nM	
Cc1ccc(C(=O)Nc2cc(C(=O)NCc3cccc(CN4CCCC4)c3)ccc2N2CCN(c3ccccc3C)CC2)o1 [Compound 546]	1000 to 10000 nM	
CCN(C)Cc1cccc(CNC(=O)c2ccc(N3CCN(c4ccccc4C)CC3)c(NC(=O)c3ccc(C)o3)c2)c1 [Compound 547]	1000 to 10000 nM	
Cc1ccccc1N1CCN(c2ccc(C(=O)NCCc3cn(C)cn3)cc2N(C(=O)C(F)(F)F)C(=O)C(F)(F)F)CC1 [Compound 548]	1000 to 10000 nM	
Cc1ccccc1N1CCN(c2ccc(C(=O)NC[C@@H]3OC(C)(C)O[C@H]3CN)cc2NC(=O)c2coc(C3CC3)n2)CC1 [Compound 549]	100 to 1000 nM	
Cc1ccccc1N1CCN(c2ccc(C(=O)N[C@@H]3C[C@H](CO)[C@@H](O)[C@H]3O)cc2NC(=O)c2coc(C3CC3)n2)CC1 [Compound 551]	< 100 nM	
Cc1ccccc1N1CCN(c2ccc(C(=O)NC3CCCC(O)C3)cc2NC(=O)c2coc(C3CC3)n2)CC1 (stereo not shown) [Compound 552]	< 100 nM	
O=C(NCCCN1CCCC1=O)c1ccc(N2CCN(c3cccc4[nH]ccc34)CC2)c(NC(=O)c2coc(C3CC3)n2)c1 [Compound 553]	100 to 1000 nM	
O=C(NCCCN1CCCC1=O)c1ccc(N2CCN(c3ncncn3)CC2)c(NC(=O)c2coc(C3CC3)n2)c1 [Compound 554]		40%
O=C(NCCCN1CCCC1=O)c1ccc(N2CCN(c3cccnc3)CC2)c(NC(=O)c2coc(C3CC3)n2)c1 [Compound 555]	1000 to 10000 nM	
Cc1ccccc1N1CCN(c2ccc(C(=O)NC[C@H](O)[C@@H](O)CN)cc2NC(=O)c2coc(C3CC3)n2)CC1 [Compound 561]	1000 to 10000 nM	
COC(C(=O)Nc1cc(C(=O)NCCCN2CCCC2=O)ccc1N1CCN(c2ccccc2C)CC1)c1ccccc1 (stereo not shown) [Compound 562]	100 to 1000 nM	
Cc1ccccc1N1CCN(c2ccc(C(=O)NCc3cccc(CN(C)C)c3)cc2NS(C)(=O)=O)CC1 [Compound 563]	> 10000 nM	
Cc1ccccc1N1CCN(c2ccc(C(=O)NCc3ccc(F)c(CN(C)C)c3)cc2NC(=O)c2coc(C3CC3)n2)CC1 [Compound 564]	100 to 1000 nM	
Cc1ccccc1N1CCN(c2ccc(C(=O)NC[C@H](O)CO)cc2NC(=O)c2coc(C3CC3)n2)CC1 [Compound 565]	100 to 1000 nM	
Cc1ccccc1N1CCN(c2ccc(C(=O)NC[C@H](O)c3ccccc3)cc2NC(=O)c2coc(C3CC3)n2)CC1 [Compound 566]	100 to 1000 nM	
Cc1ccccc1N1CCN(c2ccc(C(=O)NC[C@@H](O)CO)cc2NC(=O)c2coc(C3CC3)n2)CC1 [Compound 567]	100 to 1000 nM	
Cc1ccccc1N1CCN(c2ccc(C(=O)NC[C@@H](N)c3ccccc3)cc2NC(=O)c2coc(C3CC3)n2)CC1 [Compound 568]	100 to 1000 nM	
Cc1ccc2[nH]cc(CCNC(=O)c3ccc(N4CCN(c5ccccc5C)CC4)c(NC(=O)c4coc(C5CC5)n4)c3)c2c1 [Compound 569]	1000 to 10000 nM	
Cc1ccccc1N1CCN(c2ccc(C(=O)NCCCc3cccc(O)c3)cc2NC(=O)c2coc(C3CC3)n2)CC1 [Compound 570]	100 to 1000 nM	

SMILES	EC50	activation at 5 µM (1 h, 5 μM, effect relative to maximum response of the FSH standard)
Cc1ccccc1N1CCN(c2ccc(C(=O)N3CCC4(CC3)COC4)cc2NC(=O)c2coc(C3CC3)n2)CC1 [Compound 571]	100 to 1000 nM	
Cc1ccccc1N1CCN(c2ccc(C(=O)NCCCN3CCCC3=O)cc2NCc2ccco2)CC1 [Compound 572]	< 100 nM	
Cc1ccc(CNc2cc(C(=O)NCc3cccc(CN(C)C)c3)ccc2N2CCN(c3ccccc3C)CC2)o1 [Compound 573]	1000 to 10000 nM	
Cc1ccccc1N1CCN(c2ccc(C(=O)NCc3cccc(CO)c3)cc2NC(=O)c2coc(C3CC3)n2)CC1 [Compound 574]	100 to 1000 nM	
Cc1ccccc1N1CCN(c2ccc(C(=O)N[C@H]3CCC[C@@H](O)C3)cc2NC(=O)c2coc(C3CC3)n2)CC1 [Compound 575]	< 100 nM	
Cc1ccccc1N1CCN(c2ccc(C(=O)N[C@H]3CCC[C@H](O)C3)cc2NC(=O)c2coc(C3CC3)n2)CC1 [Compound 576]	< 100 nM	
Cc1ccccc1N1CCN(c2ccc(C(=O)N[C@H]3CCC[C@H](O)[C@@H]3O)cc2NC(=O)c2coc(C3CC3)n2)CC1 [Compound 578]	< 100 nM	
CCOc1cc(CCCNC(=O)c2ccc(N3CCN(c4ccccc4C)CC3)c(NC(=O)c3ccco3)c2)ccc1OC [Compound 579]	100 to 1000 nM	
CCOc1cc(CCCNC(=O)c2ccc(N3CCN(c4ccccc4C)CC3)c(NC(=O)c3coc(C4CC4)n3)c2)ccc1OC [Compound 580]	100 to 1000 nM	
CCOc1cc(CCCNC(=O)c2ccc(N3CCN(c4ccccc4C)CC3)c(NC(=O)c3ccc(C)o3)c2)ccc1OC [Compound 581]	100 to 1000 nM	
Cc1ccccc1N1CCN(c2ccc(C(=O)NC[C@@H](O)c3ccccc3)cc2NC(=O)c2ccco2)CC1 [Compound 582]	100 to 1000 nM	
Cc1ccc(C(=O)Nc2cc(C(=O)NC[C@@H](O)c3ccccc3)ccc2N2CCN(c3ccccc3C)CC2)o1 [Compound 583]	1000 to 10000 nM	
Cc1ccc(C(=O)Nc2cc(C(=O)NC[C@H](O)c3ccccc3)ccc2N2CCN(c3ccccc3C)CC2)o1 [Compound 584]	1000 to 10000 nM	
Cc1ccccc1N1CCN(c2ccc(C(=O)NC[C@H](O)c3ccccc3)cc2NC(=O)c2ccco2)CC1 [Compound 585]	< 100 nM	
Cc1ccccc1N1CCN(c2ccc(C(=O)N3CCC4(COC4)C3)cc2NC(=O)c2ccco2)CC1 [Compound 587]	1000 to 10000 nM	
Cc1ccc(C(=O)Nc2cc(C(=O)NCCCc3cccc(O)c3)ccc2N2CCN(c3ccccc3C)CC2)o1 [Compound 588]	100 to 1000 nM	
Cc1ccccc1N1CCN(c2ccc(C(=O)NCCCc3cccc(O)c3)cc2NC(=O)c2ccco2)CC1 [Compound 589]	100 to 1000 nM	
Cc1ccccc1N1CCN(c2ccc(C(=O)N3CC4(COC4)C3)cc2NC(=O)c2coc(C3CC3)n2)CC1 [Compound 590]	100 to 1000 nM	
Cc1ccc(C(=O)Nc2cc(C(=O)N3CC4(COC4)C3)ccc2N2CCN(c3ccccc3C)CC2)o1 [Compound 591]	> 10000 nM	
Cc1ccccc1N1CCN(c2ccc(C(=O)N3CC4(COC4)C3)cc2NC(=O)c2ccco2)CC1 [Compound 592]	1000 to 10000 nM	
Cc1ccc(C(=O)Nc2cc(C(=O)N3CCC4(COC4)C3)ccc2N2CCN(c3ccccc3C)CC2)o1 [Compound 593]	1000 to 10000 nM	
Cc1ccccc1N1CCN(c2ccc(C(=O)N3CCC4(COC4)C3)cc2NC(=O)c2coc(C3CC3)n2)CC1 [Compound 594]	1000 to 10000 nM	
N#Cc1nccnc1N1CCN(c2ccc(C(=O)NCCCN3CCCC3=O)cc2NC(=O)c2coc(C3CC3)n2)CC1 [Compound 595]	1000 to 10000 nM	
O=C(NCCCN1CCCC1=O)c1ccc(N2CCN(c3cccnn3)CC2)c(NC(=O)c2coc(C3CC3)n2)c1 [Compound 596]	1000 to 10000 nM	

Source: patent US9938262B2, “Benzamides” (Merck Patent GmbH, priority 2011, dated 2018)
